From US20250076312A1, “BIOMARKERS FOR THE TREATMENT OF INTERSTITIAL LUNG DISEASE” (Lung Therapeutics, LLC, priority 2021, published 2025)
Square brackets hold non-standard residues; d marks the D form. Ends that are not written are not given here.

Columns and labels:
Type in all cases: cell-based, human
pSMAD2/3 [1] = experiment: SMAD2/3 phosphorylation in IPF fibroblasts; settings: 10 μM, compared to 1% DMSO vehicle or DMEM controls, FIG. 7A
Method: IPF fibroblasts were treated with DMEM, 1% DMSO vehicle, CSP-7 (10 μM), Var55 (10 μM), pirfenidone (500 μM), or nintedanib (100 nM). SMAD2/3 phosphorylation was determined by Western blot 24 hours following treatment. […] IPF epithelial cells were treated with DMEM (control), Var55 (100 μM), nintedanib (100 nM), control peptide 1 (CP1, 100 μM), or control peptide 2 (CP2, 100 μM). SMAD2/3 phosphorylation was determined by Western blot 24 hours following treatment. Phosphorylated SMAD2/3 protein levels were determined by normalizing to total SMAD2/3 protein (FIG. 7A and FIG. 7B). Primary lung fibroblasts from IPF patients were treated with 1% DMSO vehicle, CSP-7 (10 μM), Var55 (10 μM), pirfenidone (500 μM), or nintedanib (100 nM). SMAD2/3 phosphorylation was measured in IPF fibroblasts by a multiplex assay or Western blot analysis and phosphorylated SMAD2/3 was normalized to total SMAD2/3 protein.

pSMAD2/3 [2] = experiment: SMAD2/3 phosphorylation in IPF epithelial cells; settings: 100 μM, compared to DMEM control, FIG. 7B
Method: IPF fibroblasts were treated with DMEM, 1% DMSO vehicle, CSP-7 (10 μM), Var55 (10 μM), pirfenidone (500 μM), or nintedanib (100 nM). SMAD2/3 phosphorylation was determined by Western blot 24 hours following treatment. […] IPF epithelial cells were treated with DMEM (control), Var55 (100 μM), nintedanib (100 nM), control peptide 1 (CP1, 100 μM), or control peptide 2 (CP2, 100 μM). SMAD2/3 phosphorylation was determined by Western blot 24 hours following treatment. Phosphorylated SMAD2/3 protein levels were determined by normalizing to total SMAD2/3 protein (FIG. 7A and FIG. 7B).
Additional experiments were performed to determine whether phosphorylation of SMAD2/3 could be used as a biomarker associated with Var55 treatment. Epithelial cells from IPF patients were treated with DMEM (control), Var55 (100 μM), nintedanib (100 nM), control peptide 1 (CP1, 100 μM), or control peptide 2 (CP2, 100 μM). SMAD2/3 phosphorylation was measured in […] by a multiplex assay or Western blot analysis and phosphorylated SMAD2/3 was normalized to total SMAD2/3 protein.

CXCL7 [3] = experiment: CXCL7 ELISA in supernatant of healthy control lung macrophages; settings: FIG. 14
Excerpt: (§1) Lung macrophages were either left untreated or treated with Var55. Each line represents a biological replicate of lung macrophages from an individual control subject (triangles) or an individual with IPF (circles).
(§2) Lung macrophages were collected from humans with IPF or healthy controls and cultured in vitro. Lung macrophages were either left untreated or treated with Var55. Following treatment, supernatants from the lung macrophage cultures were collected and analyzed for CXCL7 expression by ELISA.

CXCL7 [4] = experiment: CXCL7 ELISA in supernatant of IPF lung macrophages; settings: FIG. 14
Excerpt: as §1, §2

LDH activity = tested on: LDH activity
Method: PCLSs were either untreated or treated with CSP-7 (10 μM or 100 μM), control peptide (CP, 100 μM), TGFβ (2 ng/mL), or pirfenidone (Pirf, 500 μM) and nintedanib (Nin, 100 nM). LDH activity was measured in the supernatant of IPF PCLSs on day 2 (left panel) or day 4 (right panel) following treatment. […] LDH activity was measured in the supernatant of IPF PCLSs on day 2 (left panel) or day 4 (right panel) following treatment.
LDH activity was also examined in the supernatants of IPF PCLSs either untreated (UT) or treated with CSP-7 (10 μM or 100 μM), control peptide (CP, 100 μM), TGFβ (2 ng/mL), or pirfenidone (Pirf, 500 μM) and nintedanib (Nin, 100 nM). LDH activity was measured using an LDH assay (Sigma-Aldrich, Cat No MAK066).

Substance | phosphorylation of SMAD2/3 normalized to total SMAD2/3 (pSMAD2/3 [1]) | phosphorylation of SMAD2/3 normalized to total SMAD2/3 (pSMAD2/3 [2]) | CXCL7 in the supernatant (CXCL7 [3]) | CXCL7 in the supernatant (CXCL7 [4]) | LDH activity in PCLS supernatant (LDH activity)
Ac-aaEGKASFTTFTVTKGSaa-NH2 (Ac-[dA][dA]EGKASFTTFTVTKGS[dA][dA]-NH2; SMILES CC(=O)N[C@H](C)C(=O)N[C@H](C)C(=O)N[C@@H](CCC(=O)O)C(=O)NCC(=O)N[C@@H](CCCCN)C(=O)N[C@@H](C)C(=O)N[C@@H](CO)C(=O)N[C@@H](Cc1ccccc1)C(=O)N[C@H](C(=O)N[C@H](C(=O)N[C@@H](Cc1ccccc1)C(=O)N[C@H](C(=O)N[C@H](C(=O)N[C@H](C(=O)N[C@@H](CCCCN)C(=O)NCC(=O)N[C@@H](CO)C(=O)N[C@H](C)C(=O)N[C@H](C)C(N)=O)[C@@H](C)O)C(C)C)[C@@H](C)O)[C@@H](C)O)[C@@H](C)O) [Var55] | no difference | reduced phosphorylation | significant reduction | significant reduction | –
FTTFTVT [CSP-7, FTTFTVT] | – | – | – | – | slight reduction
